Assay results from patent US9428478B2, “Piperazine derivatives, compositions, and uses related thereto” (Emory University, priority 2011, dated 2016).
Values after ≈ are worked out from the molar mass of the structure shown.

What was measured:
[1] = target: T1, Nox2 (Homo sapiens (Human), UniProt P04839); experiment: Nox2 activity assay for primary screening (cell free, human neutrophil plasma membranes, LO12 luminescence); format: biochemical
Procedure: Nox2 activity assay for primary screening: Plasma membranes were prepared from human neutrophils, which express large amounts of Nox2, stored at −80 C until use. See Curnutte et al., J. Biol. Chem. 1987, 262, 6450-6452, hereby incorporated by reference. Membranes are mixed with recombinant, purified cytosolic regulatory proteins (p67Np47N chimera, and a constitutively active mutant of Rac, Rac1(Q61)) and FAD, along with varying concentrations of compound, and LO12, which emits light when it reacts with ROS. The reaction is initiated by addition of NADPH and SDS (an artificial activator of Nox2).
Target sequence in this assay (P04839 2-570): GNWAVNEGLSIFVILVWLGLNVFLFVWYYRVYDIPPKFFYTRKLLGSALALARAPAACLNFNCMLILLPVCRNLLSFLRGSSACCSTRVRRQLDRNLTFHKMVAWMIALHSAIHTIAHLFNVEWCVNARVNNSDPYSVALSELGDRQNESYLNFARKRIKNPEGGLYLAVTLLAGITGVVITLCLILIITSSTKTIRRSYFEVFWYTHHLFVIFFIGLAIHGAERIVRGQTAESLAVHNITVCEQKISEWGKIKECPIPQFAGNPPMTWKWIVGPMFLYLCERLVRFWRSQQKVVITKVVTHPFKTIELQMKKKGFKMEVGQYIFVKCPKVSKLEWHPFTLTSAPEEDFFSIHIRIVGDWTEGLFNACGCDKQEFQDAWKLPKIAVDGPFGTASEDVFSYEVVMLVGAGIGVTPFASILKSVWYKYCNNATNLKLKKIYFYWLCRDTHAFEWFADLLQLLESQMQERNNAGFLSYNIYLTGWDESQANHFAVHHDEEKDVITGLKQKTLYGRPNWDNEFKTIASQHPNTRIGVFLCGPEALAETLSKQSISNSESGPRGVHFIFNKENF

[2] = target: xanthine oxidase (Homo sapiens (Human), UniProt P47989); experiment: Assay control: xanthine oxidase (XO) replaces Nox2 as the source of ROS, LO12 luminescence; format: biochemical; details: Table 2, xanthine oxidase control
xanthine oxidase, sequence (P47989 whole entry, species assumed): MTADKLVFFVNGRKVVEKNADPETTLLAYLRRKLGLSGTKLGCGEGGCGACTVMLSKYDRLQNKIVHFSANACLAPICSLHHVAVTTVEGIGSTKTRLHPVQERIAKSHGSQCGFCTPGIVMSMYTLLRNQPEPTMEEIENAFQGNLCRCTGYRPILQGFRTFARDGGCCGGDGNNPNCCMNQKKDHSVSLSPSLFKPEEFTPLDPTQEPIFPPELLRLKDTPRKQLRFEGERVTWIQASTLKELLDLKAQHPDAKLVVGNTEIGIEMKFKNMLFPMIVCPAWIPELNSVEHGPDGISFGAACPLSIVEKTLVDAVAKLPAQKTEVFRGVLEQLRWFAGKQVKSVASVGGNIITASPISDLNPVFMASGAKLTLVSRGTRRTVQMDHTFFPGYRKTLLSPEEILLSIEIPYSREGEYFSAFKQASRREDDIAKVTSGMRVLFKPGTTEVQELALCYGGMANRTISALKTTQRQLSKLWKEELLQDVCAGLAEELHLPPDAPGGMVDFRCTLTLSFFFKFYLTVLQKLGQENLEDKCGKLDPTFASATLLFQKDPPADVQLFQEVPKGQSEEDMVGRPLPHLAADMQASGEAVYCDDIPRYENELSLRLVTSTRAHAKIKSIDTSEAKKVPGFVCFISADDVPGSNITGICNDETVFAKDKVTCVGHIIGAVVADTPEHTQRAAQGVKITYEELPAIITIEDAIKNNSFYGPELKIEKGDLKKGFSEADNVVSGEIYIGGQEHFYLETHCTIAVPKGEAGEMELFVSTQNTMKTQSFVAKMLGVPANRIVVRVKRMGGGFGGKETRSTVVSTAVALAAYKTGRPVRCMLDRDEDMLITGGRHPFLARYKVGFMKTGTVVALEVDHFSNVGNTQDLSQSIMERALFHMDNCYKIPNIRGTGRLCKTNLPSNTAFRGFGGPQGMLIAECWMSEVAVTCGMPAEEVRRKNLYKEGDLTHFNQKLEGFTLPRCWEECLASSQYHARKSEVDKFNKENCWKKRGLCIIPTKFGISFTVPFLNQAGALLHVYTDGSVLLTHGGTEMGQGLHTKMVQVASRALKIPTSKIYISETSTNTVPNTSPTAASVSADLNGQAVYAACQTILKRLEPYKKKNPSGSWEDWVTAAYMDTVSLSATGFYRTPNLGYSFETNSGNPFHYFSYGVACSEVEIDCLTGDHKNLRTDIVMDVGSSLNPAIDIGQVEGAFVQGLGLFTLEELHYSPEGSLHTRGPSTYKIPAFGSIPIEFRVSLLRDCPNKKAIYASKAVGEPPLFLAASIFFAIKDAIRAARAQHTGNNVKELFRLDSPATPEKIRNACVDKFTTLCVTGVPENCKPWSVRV
Procedure: Assay controls. To rule out interference with either Nox2 or Nox4 luminescence assays, two approaches are used. In one, xanthine oxidase replaces the Nox2 enzymatic system as the source of ROS in the Nox2/LO12 assay. Xanthine is added to initiate the reaction and LO12 luminescence is recorded. In the other, exogenous H2O2 is supplied in place of the Nox4 expressing H2O2-generating cells and luminescence is recorded.

[3] = target: T1, Nox2; experiment: Nox2 assay in human neutrophils (PMN), LO12 luminescence; format: cell-based
Procedure: (§1) Nox2 assay in human neutrophils: Human neutrophils were obtained from healthy volunteers (REF). LO12 luminescence was quantified as above. Nox4 assay using stably transfected HEK cell: HEK cells stably transfected with human Nox4 were incubated with varying concentrations of compound along with LO12.
Target sequence in this assay (P04839 whole entry, looked up): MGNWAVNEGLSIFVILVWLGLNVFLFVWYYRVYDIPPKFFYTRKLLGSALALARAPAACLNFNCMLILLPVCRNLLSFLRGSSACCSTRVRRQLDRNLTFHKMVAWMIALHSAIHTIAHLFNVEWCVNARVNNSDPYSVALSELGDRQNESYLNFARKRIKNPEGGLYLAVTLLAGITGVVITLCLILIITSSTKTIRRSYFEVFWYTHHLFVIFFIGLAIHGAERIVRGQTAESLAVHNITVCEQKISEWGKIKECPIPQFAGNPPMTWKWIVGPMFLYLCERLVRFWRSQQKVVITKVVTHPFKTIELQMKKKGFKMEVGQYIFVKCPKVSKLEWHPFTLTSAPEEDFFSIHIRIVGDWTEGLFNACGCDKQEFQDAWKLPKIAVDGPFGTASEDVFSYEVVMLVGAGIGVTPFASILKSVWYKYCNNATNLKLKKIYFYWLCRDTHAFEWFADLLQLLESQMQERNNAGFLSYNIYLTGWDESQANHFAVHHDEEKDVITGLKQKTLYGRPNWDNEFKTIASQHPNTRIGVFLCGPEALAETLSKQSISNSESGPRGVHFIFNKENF
Target sequence in this assay (P13498 whole entry partner, looked up): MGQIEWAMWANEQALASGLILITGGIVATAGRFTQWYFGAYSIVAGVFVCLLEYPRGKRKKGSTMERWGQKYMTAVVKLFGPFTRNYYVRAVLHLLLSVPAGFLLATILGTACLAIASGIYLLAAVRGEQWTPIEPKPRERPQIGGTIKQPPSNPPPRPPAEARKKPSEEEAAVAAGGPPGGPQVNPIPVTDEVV

[4] = target: Nox1 (Homo sapiens (Human), UniProt Q9Y5S8); experiment: Nox1 inhibition; format: biochemical; details: Table 3
Nox1, sequence (Q9Y5S8 whole entry, species assumed): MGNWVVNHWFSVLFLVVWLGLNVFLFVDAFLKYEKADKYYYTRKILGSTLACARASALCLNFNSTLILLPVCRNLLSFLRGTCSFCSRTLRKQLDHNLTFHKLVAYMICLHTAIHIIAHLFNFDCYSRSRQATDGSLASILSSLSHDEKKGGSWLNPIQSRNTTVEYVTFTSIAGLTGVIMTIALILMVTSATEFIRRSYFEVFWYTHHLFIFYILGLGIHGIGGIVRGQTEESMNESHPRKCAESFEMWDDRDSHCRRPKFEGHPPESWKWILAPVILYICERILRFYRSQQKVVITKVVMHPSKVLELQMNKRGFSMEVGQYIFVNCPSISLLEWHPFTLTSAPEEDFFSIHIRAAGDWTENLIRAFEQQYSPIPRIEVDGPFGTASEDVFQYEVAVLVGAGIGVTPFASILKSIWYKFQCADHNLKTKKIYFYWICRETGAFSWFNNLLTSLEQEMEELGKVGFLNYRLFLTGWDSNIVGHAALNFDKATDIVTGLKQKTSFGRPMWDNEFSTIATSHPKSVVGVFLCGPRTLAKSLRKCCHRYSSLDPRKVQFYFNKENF
Nox1, sequence (P13498 2-195 partner, species assumed): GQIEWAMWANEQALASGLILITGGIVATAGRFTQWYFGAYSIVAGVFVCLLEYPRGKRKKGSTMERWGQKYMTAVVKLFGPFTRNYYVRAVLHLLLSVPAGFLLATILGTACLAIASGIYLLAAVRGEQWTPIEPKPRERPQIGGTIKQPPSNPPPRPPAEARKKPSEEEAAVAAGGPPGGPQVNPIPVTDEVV

[5] = target: Nox5 (Homo sapiens (Human), UniProt Q96PH1); experiment: Nox5 inhibition; format: biochemical; details: Table 3
Nox5, sequence (Q96PH1 whole entry, species assumed): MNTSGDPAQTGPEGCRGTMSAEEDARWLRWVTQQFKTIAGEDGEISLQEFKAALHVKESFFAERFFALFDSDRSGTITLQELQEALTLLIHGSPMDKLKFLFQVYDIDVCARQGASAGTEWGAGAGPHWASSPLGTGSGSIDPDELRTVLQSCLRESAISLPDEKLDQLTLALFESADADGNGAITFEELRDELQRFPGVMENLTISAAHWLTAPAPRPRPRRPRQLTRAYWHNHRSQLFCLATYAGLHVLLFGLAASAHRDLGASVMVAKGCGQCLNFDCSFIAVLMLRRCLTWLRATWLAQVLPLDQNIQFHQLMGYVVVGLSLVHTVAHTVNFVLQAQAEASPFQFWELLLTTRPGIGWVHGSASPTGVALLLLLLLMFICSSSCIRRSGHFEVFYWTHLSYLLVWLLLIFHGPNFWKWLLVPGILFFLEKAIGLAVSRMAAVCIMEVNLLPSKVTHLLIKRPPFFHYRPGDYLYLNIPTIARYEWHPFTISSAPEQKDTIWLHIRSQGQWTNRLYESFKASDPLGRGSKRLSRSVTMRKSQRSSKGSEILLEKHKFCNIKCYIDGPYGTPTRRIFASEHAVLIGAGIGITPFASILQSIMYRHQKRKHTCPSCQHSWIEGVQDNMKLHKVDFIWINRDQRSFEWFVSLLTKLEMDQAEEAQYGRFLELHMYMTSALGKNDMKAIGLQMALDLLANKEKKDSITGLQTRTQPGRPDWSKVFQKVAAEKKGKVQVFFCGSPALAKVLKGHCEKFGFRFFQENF

[6] = Solubility; format: physicochemical
[7] = Stability in liver S9-fractions, mouse; format: in vitro ADME; details: read-out: Stability in liver S9-fractions (t ½) Mouse (converted)
[8] = Stability in liver S9-fractions, dog; format: in vitro ADME; details: read-out: Stability in liver S9-fractions (t ½) Dog (converted)
[9] = Stability in liver S9-fractions, human; format: in vitro ADME; details: read-out: Stability in liver S9-fractions (t ½) Human (converted)
[10] = target: human Nox4 (Homo sapiens (Human), UniProt Q9NPH5); experiment: Nox4 assay using stably transfected HEK cells; format: cell-based
human Nox4, sequence (Q9NPH5 whole entry): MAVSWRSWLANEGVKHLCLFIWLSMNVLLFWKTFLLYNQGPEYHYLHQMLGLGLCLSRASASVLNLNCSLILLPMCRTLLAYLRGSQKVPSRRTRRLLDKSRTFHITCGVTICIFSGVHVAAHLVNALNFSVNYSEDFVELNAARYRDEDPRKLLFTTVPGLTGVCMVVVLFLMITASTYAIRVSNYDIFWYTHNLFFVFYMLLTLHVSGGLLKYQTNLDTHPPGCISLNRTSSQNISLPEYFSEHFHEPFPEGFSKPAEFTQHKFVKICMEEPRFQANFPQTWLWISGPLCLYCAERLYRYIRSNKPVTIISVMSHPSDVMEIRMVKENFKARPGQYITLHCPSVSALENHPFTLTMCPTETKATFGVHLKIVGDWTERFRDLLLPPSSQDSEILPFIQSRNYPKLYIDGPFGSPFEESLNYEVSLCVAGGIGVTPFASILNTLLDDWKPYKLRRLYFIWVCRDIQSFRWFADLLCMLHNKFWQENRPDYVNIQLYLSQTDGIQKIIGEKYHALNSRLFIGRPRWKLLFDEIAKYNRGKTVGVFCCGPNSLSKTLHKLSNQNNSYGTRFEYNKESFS
human Nox4, sequence (P13498 2-195 partner): as the sequence (P13498 2-195 partner, species assumed) above
Procedure: as §1
Nox4 produces hydrogen peroxide rather than superoxide; under these conditions LO12 luminesces only after the addition of horseradish peroxidase to initiate the reaction.

[11] = Table 3, read-out: Nox2 (Cell Free)
[12] = Table 3, human neutrophils, read-out: Nox2 (PMN)

COc1ccc(N2CCN(C(=O)[C@H]3Cc4ccccc4N3)CC2)cc1 [TG6-214]
inhibition at 2.5 µM [1]: 40%

CCOc1ccc(N2CCN(C(=O)c3nc4cc(F)ccc4[nH]3)CC2)cc1 [TG6-242]
IC50 ([1]; Table 2, read-out: IC50 Nox2): 800 nM

O=C(c1cc2cc(O)ccc2[nH]1)N1CCN(c2ccc(OC(F)(F)F)cc2)CC1 [TG6-205-2]
IC50 ([1]; Table 2, read-out: IC50 Nox2): 1500 nM
IC50 [2]: 200 nM

COc1ccc(N2CCN(C(=O)c3[nH]c4ccc(F)cc4c3C)CC2)cc1 [TG6-200]
IC50 ([1]; Table 2, read-out: IC50 Nox2): 700 nM

COc1ccc(N2CCN(C(=O)c3cc4cc(OC)c(OC)cc4[nH]3)CC2)cc1 [TG6-181]
IC50 ([1]; Table 2, read-out: IC50 Nox2): 800 nM
IC50 [2]: > 20000 nM

COc1ccc(N2CCN(C(=O)c3cnc4c(F)cccc4c3O)CC2)cc1 [TG6-192]
IC50 Nox2 ([1]; Table 2): Not active

CNC(=O)c1ccc2[nH]c(C(=O)N3CCN(c4ccc(OC)cc4)CC3)cc2c1 [TG6-223]
IC50 ([1]; Table 2, read-out: IC50 Nox2): 500 nM
IC50 [2]: > 20000 nM

COc1ccc(N2CCN(C(=O)c3[nH]c4ccc(F)cc4c3CN3CCOCC3)CC2)cc1.Cl [TG7-31, (5-fluoro-3-(morpholinomethyl)-1H-indol-2-yl)(4-(4-methoxyphenyl)piperazin-1-yl)methanone]
IC50 [1, 11]: 800 nM
IC50 [3, 12]: 200 nM
IC50 [4]: 600 nM
IC50 [5]: 1500 nM
solubility [6]: 276 µM

CCc1ccc2[nH]c(C(=O)N3CCN(c4ccc(OC)cc4)CC3)cc2c1 [TG6-202]
IC50 Nox2 ([1]; Table 2): Not active
IC50 [2]: > 20000 nM

COc1ccc(N2CCN(C(=O)c3cc4ccccc4[nH]3)CC2)cc1 [TG6-225]
IC50 ([1]; Table 2, read-out: IC50 Nox2): 500 nM
IC50 [1, 11]: 400 nM
IC50 [3, 12]: 200 nM
IC50 [2]: > 20000 nM
IC50 [4]: 500 nM
solubility [6]: < 25 µM
half-life [7]: 5 h
half-life [8]: 2.5 h
half-life [9]: 4.2 h

COc1ccc(N2CCN(C(=O)c3[nH]c4ccc(OC)cc4c3NC(C)=O)CC2)cc1 [TG6-208]
inhibition at 2 µM [1]: 60%

CNC(=O)c1ccc2[nH]c(C(=O)N3CCN(c4ccc(OC)c(F)c4)CC3)cc2c1 [TG6-254-2]
IC50 ([1]; Table 2, read-out: IC50 Nox2): 10000 nM

COc1ccc(N2CCN(C(=O)c3cc4cc(S(C)(=O)=O)ccc4[nH]3)CC2)cc1 [TG6-218]
inhibition at 6 µM [1]: 40%

CC(C)Oc1ccc(N2CCN(C(=O)c3nc4cc(C(N)=O)ccc4[nH]3)CC2)cc1 [TG6-251-1]
IC50 ([1]; Table 2, read-out: IC50 Nox2): 1000 nM
IC50 [2]: ≥ 20000 nM

COc1ccc(N2CCN(C(=O)c3cc4cc(C(C)=O)ccc4[nH]3)CC2)cc1F [TG6-252]
IC50 ([1]; Table 2, read-out: IC50 Nox2): 3000 nM

CCN(CC)Cc1c(C(=O)N2CCN(c3ccc(OC)cc3)CC2)[nH]c2ccc(F)cc12.Cl [TG7-34, (3-((diethylamino)methyl)-5-fluoro-1H-indol-2-yl)(4-(4-methoxyphenyl)piperazin-1-yl)methanone]
IC50 [1, 11]: 700 nM
IC50 [3, 12]: 500 nM
IC50 [4]: 600 nM
IC50 [5]: 600 nM
solubility [6]: 270 µM

CCN(CC)CCNCc1c(C(=O)N2CCN(c3ccc(OC)cc3)CC2)[nH]c2ccc(F)cc12 [TG6-298, (3-(((2-(diethylamino)ethyl)amino)methyl)-5-fluoro-1H-indol-2-yl)(4-(4-methoxyphenyl)piperazin-1-yl)methanone]
IC50 [1, 11]: 300 nM
IC50 [3, 12]: 200 nM
IC50 [4]: 900 nM
solubility [6]: 150 µM (≈ 72.2 µg/mL)

COc1ccc(N2CCN(C(=O)c3cc4cc(Br)ccc4[nH]3)CC2)cc1 [TG6-203]
inhibition at 0.3 µM [1]: 30%

COc1ccc(N2CCN(C(=O)c3cc4cc(OC)ccc4[nH]3)CC2)cc1 [TG6-179-2]
IC50 ([1]; Table 2, read-out: IC50 Nox2): 500 nM

COc1ccc(N2CCN(C(=O)c3cc4cc(O)ccc4[nH]3)CC2)cc1 [TG6-199]
IC50 ([1]; Table 2, read-out: IC50 Nox2): 500 nM
IC50 [2]: < 100 nM

CCOc1ccc(N2CCN(C(=O)c3cc4cc(C(C)=O)ccc4[nH]3)CC2)cc1 [TG6-238]
IC50 ([1]; Table 2, read-out: IC50 Nox2): 800 nM
IC50 [2]: ≥ 20000 nM

COc1ccc(N2CCN(C(=O)c3cc4cc(F)ccc4[nH]3)CC2)cc1 [TG6-179-1]
IC50 ([1]; Table 2, read-out: IC50 Nox2): 5000 nM

COc1ccc(N2CCN(C(=O)c3[nH]c4ccc(C(C)=O)cc4c3C)CC2)cc1 [TG6-190]
IC50 ([1]; Table 2, read-out: IC50 Nox2): 1000 nM

O=C(c1cc2cc([N+](=O)[O-])ccc2[nH]1)N1CCN(c2ccc(OC(F)(F)F)cc2)CC1 [TG6-209]
inhibition at 2 µM [1]: 25%

COc1ccc(N2CCN(C(=O)c3cc4cc(C(C)=O)ccc4[nH]3)CC2)cc1 [TG6-161, 1-(2-(4-(4-methoxyphenyl)piperazine-1-carbonyl)-1H-indol-5-yl)ethanone]
IC50 ([1]; Table 2, read-out: IC50 Nox2): 400 nM
IC50 [1, 11]: 300 nM
IC50 ([1]; read-out: IC50, Nox2 cell free system): 200 to 300 nM
IC50 [3, 12]: 200 nM
IC50 ([3]; read-out: IC50, ROS production in human neutrophils): 200 to 300 nM
selectivity for Nox2 compared with Nox4 [10]: ≥ 100 fold
IC50 ([10]; using two different assays): 20000 to 30000 nM
IC50 [2]: > 20000 nM
IC50 [4]: 600 nM
solubility [6]: < 25 µM
half-life [7]: 3 h
half-life [8]: 2 h
half-life [9]: 0.75 h

COc1ccc(N2CCN(C(=O)c3cc4cc(C(=O)O)ccc4[nH]3)CC2)cc1 [TG6-236]
IC50 ([1]; Table 2, read-out: IC50 Nox2): 500 nM
IC50 [2]: > 20000 nM

COc1ccc(N2CCN(C(=O)c3cc4cc(C(N)=O)ccc4[nH]3)CC2)cc1 [TG6-227]
IC50 ([1]; Table 2, read-out: IC50 Nox2): 700 nM
IC50 [1, 11]: 600 nM
IC50 [3, 12]: 100 nM
IC50 [2]: > 20000 nM
IC50 [4]: 300 nM
solubility [6]: 190 µM (≈ 71.9 µg/mL)
half-life [7]: 6 h
half-life [8]: 4.5 h
half-life [9]: 2 h

COc1ccc(N2CCN(C(=O)c3cnc4cc(C(C)=O)ccc4c3O)CC2)cc1 [TG6-239]
IC50 ([1]; Table 2, read-out: IC50 Nox2): 1000 nM
IC50 [2]: ≥ 20000 nM

O=C(c1nc2cc(F)ccc2[nH]1)N1CCN(c2ccc(OC(F)(F)F)cc2)CC1 [TG6-206]
IC50 Nox2 ([1]; Table 2): Not active

COc1ccc(N2CCN(C(=O)c3cc4cc(C(N)=O)ccc4[nH]3)CC2)cc1F [TG6-254-1]
IC50 ([1]; Table 2, read-out: IC50 Nox2): 2000 nM

COc1ccc(N2CCN(C(=O)c3nc4cc(OC)ccc4[nH]3)CC2)cc1 [TG6-228]
IC50 ([1]; Table 2, read-out: IC50 Nox2): 1000 nM
IC50 [2]: > 20000 nM

CCN1CCN(Cc2c(C(=O)N3CCN(c4ccc(OC)cc4)CC3)[nH]c3ccc(F)cc23)CC1 [TG7-33, (3-((4-ethylpiperazin-1-yl)methyl)-5-fluoro-1H-indol-2-yl)(4-(4-methoxyphenyl)piperazin-1-yl)methanone]
IC50 [1, 11]: 800 nM
IC50 [3, 12]: 700 nM
IC50 [4]: 400 nM
IC50 [5]: 800 nM
solubility [6]: 250 µM (≈ 120 µg/mL)

COc1ccc(N2CCN(C(=O)c3[nH]c4ccc(F)cc4c3CNC3CCN(C)CC3)CC2)cc1 [TG7-32, (5-fluoro-3-(((1-methylpiperidin-4-yl)amino)methyl)-1H-indol-2-yl)(4-(4-methoxyphenyl)piperazin-1-yl)methanone]
IC50 [1, 11]: 700 nM
IC50 [3, 12]: 200 nM
IC50 [4]: 500 nM
IC50 [5]: 600 nM
solubility [6]: 250 µM (≈ 120 µg/mL)

COC(=O)C1CN(c2ccc(OC)cc2)CCN1C(=O)c1nc2cc(F)ccc2[nH]1 (stereo not drawn) [TG6-235]
IC50 ([1]; Table 2, read-out: IC50 Nox2): 1000 nM
IC50 [2]: > 20000 nM

COc1ccc(N2CCN(C(=O)c3cnc4ccc(F)cc4c3O)CC2)cc1 [TG6-191]
IC50 ([1]; Table 2, read-out: IC50 Nox2): 1500 nM

COC(=O)c1ccc2[nH]c(C(=O)N3CCN(c4ccc(OC)cc4)CC3)cc2c1 [TG6-222]
IC50 ([1]; Table 2, read-out: IC50 Nox2): 300 nM
IC50 [2]: > 20000 nM

CC(=O)c1ccc2[nH]c(C(=O)N3CCN(c4ccc(OC(C)C)cc4)CC3)cc2c1 [TG6-251-2]
IC50 ([1]; Table 2, read-out: IC50 Nox2): 1000 nM

COc1ccc(N2CCN(C(=O)c3nc4cc(F)ccc4[nH]3)CC2)cc1 [TG6-179-3, (5-fluoro-1H-benzo[d]imidazol-2-yl)(4-(4-methoxyphenyl)piperazin-1-yl)methanone]
IC50 ([1]; Table 2, read-out: IC50 Nox2): 700 nM
IC50 [1, 11]: 1000 nM
IC50 [3, 12]: 400 nM
IC50 [2]: > 20000 nM
IC50 [4]: 600 nM
solubility [6]: < 25 µM
half-life [7]: 5 h
half-life [8]: 4 h
half-life [9]: 1 h
